According to patent US20240190847A1, “INDOLINE DERIVATIVES AS DDR1 AND DDR2 INHIBITORS” (CHIESI FARMACEUTICI S.P.A., priority 2021, published 2024):
Read-outs that look alike come from different tables or passages of the source.

How the values were obtained:
DDR1 = DDR1 LanthaScreen Europium Kinase Binding assay
Description: (§1) DDR1 and DDR2 binding assays were performed using Life Technologies LanthaScreen™ Europium Kinase Binding assay. The compounds were incubated with 5 nM DDR1 (Carna Biosciences) or 5 nM DDR2 (Life Technologies) for 1 hour at room temperature in white 384-well OptiPlate (PerkinElmer), containing 20 nM or 10 nM Kinase Tracer 178 respectively and 2 nM Europium labelled anti-GST antibody (Life Technologies) in assay buffer (50 mM HEPES pH 7.5, 10 mM MgCl2, 1 mM EGTA and 0.01% BRIJ35). The ratio of fluorescence emission 665 nm/615 nm after excitation at 340 nm was obtained using the Tecan Spark 20M plate reader. IC50 values were determined in GraphPad Prism 8.0 software, using 4 parameter model: log(inhibitor) vs. response. IC50 values were converted in Ki using the Cheng-Prusoff equation (Ki=IC50/(1+[Tracer]/Kd).

DDR2 [1] = test: DDR2 LanthaScreen Europium Kinase Binding assay
Description: as §1

DDR1 receptor = test: DDR1 cell based assay (PathHunter U2OS DDR1); settings: U2OS-DDR1 cells, bovine Type II Collagen 20 μg/ml stimulation
Description: The inhibition of DDR1 receptor activation by compounds was evaluated by PathHunter® U2OS DDR1 assay (Eurofins DiscoverX), according to the manufacturer's instructions. Briefly, U2O5-DDR1 cells were seeded in white 384-well plates at a density of 5000 cells/well and incubated for 2 hours at 37° C. and 5% CO2. Cells were then treated with compounds at different concentrations and incubated for 30 minutes, before stimulation with bovine Type II Collagen 20 μg/ml and incubation overnight at 37° C. and 5% CO2. PathHunter Detection Reagents were prepared according to the protocol provided by DiscoverX and 20 μl/well of this mix were added to each well. After incubating the plates for 1 hour at room temperature in the dark, luminescence signal was acquired with a plate reader. Raw data were normalized to vehicle control (0% for normalization) and positive control (100% for normalization; cells treated with 20 μg/ml collagen II) and IC50 parameters were calculated in GraphPad Prism 8.0 software, using sigmoidal dose-response curve fitting with variable slope.

DDR2 [2] = test: DDR2 cell based assay (phospho-ELISA in HEK293T-DDR2 cells); parameters: species or system human; settings: DDR2 phosphorylation, bovine Type II Collagen 50 μg/ml, read-out: IC50DDR2
Description: The inhibition of DDR2 phosphorylation by compounds was evaluated in HEK293T-DDR2 recombinant cells by phospho-ELISA assay. Briefly, HEK293T-DDR2 cells were seeded in poly-D-lysine-coated 24-well plates at a density of 250.000 cells/well and incubated for 1.5 hours at 37° C. and 5% CO2 in DMEM+10% FBS. After that, the medium was changed to serum-free DMEM and cells were incubated for 3 hours. Then. test compounds were added at different concentrations 30 minutes before stimulation with bovine Type II Collagen at 50 μg/ml for further 3 hours. For DDR2 phospho-ELISA assay (DuoSet IC Human Phospho-DDR2; R&D Systems), protein extracts were obtained by adding 60 μl/well of lysis buffer prepared according to the manufacturer's instructions.
Protein concentration in the samples was determined by BCA assay and the levels of phospho-DDR2 were determined following R&D Systems indications. Raw data were normalized to maximal inhibition control (0% for normalization) and positive control (100% for normalization; cells treated with 20 μg/ml collagen II) and IC50 parameters were calculated in GraphPad Prism 8.0 software, using sigmoidal dose-response curve fitting with variable slope.

[3] = 5 nM DDR1, 1 hour at room temperature, Ki from IC50 by Cheng-Prusoff, read-out: Ki DDR1
[4] = 5 nM DDR2, 1 hour at room temperature, Ki from IC50 by Cheng-Prusoff, read-out: Ki DDR2

SMILES	Ki (DDR1; [3]) [nM]	Ki (DDR2 [1]; [4]) [nM]	IC50 (DDR1 receptor) [nM]	IC50 (DDR2 [2]) [nM]	Ki (DDR1; read-out: DDR1 Ki) [nM]	Ki (DDR2 [1]; read-out: DDR2 Ki) [nM]
CN1CCN(Cc2cc(NC(=O)c3ccc4c(c3)N(Cc3cnc(Nc5cnn(C)c5)nc3)CC4)cc(C(F)(F)F)c2)CC1 [Example 18, 1-((2-((1-methyl-1H-pyrazol-4-yl)amino)pyrimidin-5-yl)methyl)-N-(3-((4-methylpiperazin-1-yl)methyl)-5-(trifluoromethyl)phenyl)indoline-6-carboxamide]	< 25	< 25	< 25	< 25		
CN1CCN(Cc2ccc(NC(=O)c3ccc4c(c3)N(Cc3ccc(N)nc3)CC4)cc2C(F)(F)F)CC1 [Example 9, 1-((6-aminopyridin-3-yl)methyl)-N-(4-((4-methylpiperazin-1-yl)methyl)-3-(trifluoromethyl)phenyl)indoline-6-carboxamide]	< 25	25 to 50	< 25			
CN1CCN(Cc2ccc(NC(=O)c3ccc4c(c3)N(Cc3cnc(N)nc3)CC4)cc2C(F)(F)F)CC1 [Example 8, 1-((2-aminopyrimidin-5-yl)methyl)-N-(4-((4-methylpiperazin-1-yl)methyl)-3-(trifluoromethyl)phenyl)indoline-6-carboxamide]	< 25	25 to 50	< 25			
CN1CCN(Cc2cc(C(=O)Nc3ccc4c(c3)N(Cc3nccnc3N)CC4)cc(C(F)(F)F)c2)CC1 [Example 5, N-(1-((3-aminopyrazin-2-yl)methyl)indolin-6-yl)-3-((4-methylpiperazin-1-yl)methyl)-5-(trifluoromethyl)benzamide]	< 25	< 25	< 25	25 to 50		
CNC(=O)c1cc(CN2CCc3ccc(NC(=O)c4cc(-n5cnc(C)c5)cc(C(F)(F)F)c4)cc32)ccn1 [Example 6, N-methyl-4-((6-(3-(4-methyl-1H-imidazol-1-yl)-5-(trifluoromethyl)benzamido)indolin-1-yl)methyl)picolinamide]	< 25	< 25	25 to 50			
CN1CCN(Cc2ccc(NC(=O)c3ccc4c(c3)N(Cc3cncc(C(N)=O)c3)CC4)cc2C(F)(F)F)CC1 [Example 17, 1-((5-carbamoylpyridin-3-yl)methyl)-N-(4-((4-methylpiperazin-1-yl)methyl)-3-(trifluoromethyl)phenyl)indoline-6-carboxamide]	< 25	< 25	25 to 50			
CN1CCN(Cc2cc(NC(=O)c3ccc4c(c3)N(c3cncnc3)CC4)cc(C(F)(F)F)c2)CC1 [Example C1, N-(3-((4-methylpiperazin-1-yl)methyl)-5-(trifluoromethyl)phenyl)-1-(pyrimidin-5-yl)indoline-6-carboxamide, reference compound]					30000	50000
CNc1ncc(CN2CCc3ccc(C(=O)Nc4ccc(CN5CCN(C)CC5)c(C(F)(F)F)c4)cc32)cn1 [Example 12, 1-((2-(methylamino)pyrimidin-5-yl)methyl)-N-(4-((4-methylpiperazin-1-yl)methyl)-3-(trifluoromethyl)phenyl)indoline-6-carboxamide]	< 25	25 to 50	< 25			
CC(=O)Nc1ncc(CN2CCc3ccc(C(=O)Nc4ccc(CN5CCN(C)CC5)c(C(F)(F)F)c4)cc32)cn1 [Example 15, 1-((2-acetamidopyrimidin-5-yl)methyl)-N-(4-((4-methylpiperazin-1-yl)methyl)-3-(trifluoromethyl)phenyl)indoline-6-carboxamide]	< 25		< 25			
CN1CCN(Cc2cc(NC(=O)c3ccc4c(c3)N(Cc3cncnc3)CC4)cc(C(F)(F)F)c2)CC1 [Example 3, N-(3-((4-methylpiperazin-1-yl)methyl)-5-(trifluoromethyl)phenyl)-1-(pyrimidin-5-ylmethyl)indoline-6-carboxamide]	< 25	< 25	50 to 80			
COCCn1cc(Nc2ncc(CN3CCc4ccc(C(=O)Nc5cc(CN6CCN(C)CC6)cc(C(F)(F)F)c5)cc43)cn2)cn1 [Example 19, 1-((2-((1-(2-methoxyethyl)-1H-pyrazol-4-yl)amino)pyrimidin-5-yl)methyl)-N-(3-((4-methylpiperazin-1-yl)methyl)-5-(trifluoromethyl)phenyl)indoline-6-carboxamide]	< 25	< 25	< 25			
CN1CCN(Cc2ccc(NC(=O)c3ccc4c(c3)N(Cc3cncnc3N)CC4)cc2C(F)(F)F)CC1 [Example 10, 1-((4-aminopyrimidin-5-yl)methyl)-N-(4-((4-methylpiperazin-1-yl)methyl)-3-(trifluoromethyl)phenyl)indoline-6-carboxamide]	< 25	< 25	< 25			
CNC(=O)c1cc(CN2CCc3ccc(C(=O)Nc4cc(-n5cnc(C)c5)cc(C(F)(F)F)c4)cc32)ccn1 [Example 2, N-(3-(4-methyl-1H-imidazol-1-yl)-5-(trifluoromethyl)phenyl)-1-((2-(methylcarbamoyl)pyridin-4-yl)methyl)indoline-6-carboxamide]	< 25	< 25	25 to 50			
CN1CCN(Cc2ccc(NC(=O)c3ccc4c(c3)N(Cc3cnc(N)cn3)CC4)cc2C(F)(F)F)CC1 [Example 11, 1-((5-aminopyrazin-2-yl)methyl)-N-(4-((4-methylpiperazin-1-yl)methyl)-3-(trifluoromethyl)phenyl)indoline-6-carboxamide]	< 25	< 25	< 25			
CN1CCN(c2cncc(CN3CCc4ccc(C(=O)Nc5cccc(C(F)(F)F)c5)cc43)c2)CC1=O [Example 7, 1-((5-(4-methyl-3-oxopiperazin-1-yl)pyridin-3-yl)methyl)-N-(3-(trifluoromethyl)phenyl)indoline-6-carboxamide]	< 25	< 25	< 25			
CN1CCN(Cc2cc(C(=O)Nc3ccc4c(c3)N(c3cncnc3)CC4)cc(C(F)(F)F)c2)CC1 [Example C3, 3-((4-methylpiperazin-1-yl)methyl)-N-(1-(pyrimidin-5-yl)indolin-6-yl)-5-(trifluoromethyl)benzamide, reference compound]					58000	58000
CN(C)CCn1cc(Nc2ncc(CN3CCc4ccc(C(=O)Nc5cc(CN6CCN(C)CC6)cc(C(F)(F)F)c5)cc43)cn2)cn1 [Example 20, 1-((2-((1-(2-(dimethylamino)ethyl)-1H-pyrazol-4-yl)amino)pyrimidin-5-yl)methyl)-N-(3-((4-methylpiperazin-1-yl)methyl)-5-(trifluoromethyl)phenyl)indoline-6-carboxamide]	< 25	< 25	50 to 80			
Cc1cn(-c2cc(NC(=O)c3ccc4c(c3)N(Cc3cncnc3)CC4)cc(C(F)(F)F)c2)cn1 [Example 1, N-(3-(4-methyl-1H-imidazol-1-yl)-5-(trifluoromethyl)phenyl)-1-(pyrimidin-5-ylmethyl)indoline-6-carboxamide]	< 25	< 25	50 to 80			
CN1CCN(Cc2cc(C(=O)Nc3ccc4c(c3)N(Cc3cnc(N)nc3)CC4)cc(C(F)(F)F)c2)CC1 [Example 21, N-(1-((2-aminopyrimidin-5-yl)methyl)indolin-6-yl)-3-((4-methylpiperazin-1-yl)methyl)-5-(trifluoromethyl)benzamide]	< 25	< 25	50 to 80			
Cc1cn(-c2cc(NC(=O)c3ccc4c(c3)N(c3cncnc3)CC4)cc(C(F)(F)F)c2)cn1 [Example C2, N-(3-(4-methyl-1H-imidazol-1-yl)-5-(trifluoromethyl)phenyl)-1-(pyrimidin-5-yl)indoline-6-carboxamide, reference compound]					58000	4000
